Where a name gives a salt, the structure may show the parent alone.
molecular target: T1, human MC2R (Homo sapiens, UniProt Q01718); test: Measurement of human MC2R inhibitory activity using intracellular cAMP concentration as an indicator; type: cell-based; conditions: test compound at 1 µM; GeneBLAzer MC2R-CRE-bla CHO-K1 cells; ACTH (Human 1-24) final concentration 3 pM; intracellular cAMP by HTRF
T1 construct: host or cells: GeneBLAzer MC2R-CRE-bla CHO-K1 cells
Method: Experimental Example 1: Measurement of human MC2R inhibitory activity using intracellular cAMP concentration as an indicator
GeneBLAzer MC2R-CRE-bla CHO-K1 cells (Thermo Fisher Scientific) that had been cryopreserved in advance were thawed and suspended in a medium [Dulbecco's Modified Eagle Medium (Thermo Fisher Scientific) containing fetal bovine serum (10% (v/v), HyClone Laboratories), Non-Essential Amino Acids Solution (1/100 (w/w), Thermo Fisher Scientific), HEPES (25 mM, Thermo Fisher Scientific), Penicillin/Streptomycin (1/100 (w/w), Fujifilm Wako)]. After centrifuging the cell suspension, the supernatant was removed, the cells were suspended in D-PBS(-) (Fujifilm Wako), and the supernatant was removed again after centrifugation. The cells were resuspended in an assay buffer [Hank's Balanced Salt Solution (Thermo Fisher Scientific) containing HEPES pH 7.5 (10 mM, Thermo Fisher Scientific), fatty acid-free bovine serum albumin (0.01% (w/v), Sigma), IBMX (500 µM, Fujifilm Wako)] and added to a 384-well white plate (Greiner) at 1,500 cells/well. Then, the test compound prepared using the assay buffer was added, and after standing for 20 min, an assay buffer containing ACTH (Human 1-24) (Peptide Institute) was added (ACTH final concentration, 3 pM). After standing at room temperature for 30 min, the intracellular cAMP level was measured using cAMP Gs HiRange kit HTRF (PerkinElmer). The inhibition rate (%) of the compound against MC2R was calculated using the following formula. Inhibition rate (%) = […] [formula] • A: cAMP concentration calculated from wells containing 3 pM ACTH (1-24) • B: cAMP concentration calculated from wells without addition of 3 pM ACTH (1-24) • C: cAMP concentration calculated from wells containing 3 pM ACTH (1-24) and test compound at concentration determined in advance

T1 sequence (Q01718 whole entry): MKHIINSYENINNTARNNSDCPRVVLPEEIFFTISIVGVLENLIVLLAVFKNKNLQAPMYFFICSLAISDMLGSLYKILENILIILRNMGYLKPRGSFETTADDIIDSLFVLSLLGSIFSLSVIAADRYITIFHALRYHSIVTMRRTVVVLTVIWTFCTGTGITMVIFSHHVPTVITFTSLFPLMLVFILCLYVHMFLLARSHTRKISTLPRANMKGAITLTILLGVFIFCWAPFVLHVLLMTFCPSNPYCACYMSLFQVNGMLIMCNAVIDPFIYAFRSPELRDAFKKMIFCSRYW
T1 sequence (Q8TCY5 whole entry partner): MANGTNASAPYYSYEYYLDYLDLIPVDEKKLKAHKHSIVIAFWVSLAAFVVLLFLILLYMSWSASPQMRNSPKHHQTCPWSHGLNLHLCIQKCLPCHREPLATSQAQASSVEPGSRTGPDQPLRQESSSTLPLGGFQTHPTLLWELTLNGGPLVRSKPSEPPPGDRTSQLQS

| Structure (SMILES) | MC2R inhibition rate (% of inhibition) [%] |
| --- | --- |
| CCOc1ncccc1-c1ccc(N2CCN3C(=O)N(c4ccc(Cl)cc4C(F)(F)F)C[C@@H]3C2)c(C(=O)NC2CCNC2)n1 (stereo partly drawn) [Example 24, 3-[(8aS)-2-[4-chloro-2-(trifluoromethyl)phenyl]-3-oxo-5,6,8,8a-tetrahydro-1H-imidazo[1,5-a]pyrazin-7-yl]-6-(2-ethoxypyridin-3-yl)-N-pyrrolidin-3-ylpyridine-2-carboxamide 2hydrochloride] | 100 |

same assay, conditions: test compound at 1 µM; GeneBLAzer MC2R-CRE-bla CHO-K1 cells; ACTH (Human 1-24) final concentration 3 pM; intracellular cAMP by HTRF; read-out: MC2R inhibition rate (% of inhibition)

| Structure (SMILES) | inhibition at 1 µM [%] |
| --- | --- |
| CCOc1ncccc1-c1ccc(N2C[C@H]3CN(c4ccc(Cl)cc4C(F)(F)F)C(=O)N3C[C@H]2CC)c(C(=O)NCCN(C)C)n1 [Example 26, 3-[(6R,8aS)-2-[4-chloro-2-(trifluoromethyl)phenyl]-6-ethyl-3-oxo-5,6,8,8a-tetrahydro-1H-imidazo[1,5-a]pyrazin-7-yl]-N-[2-(dimethylamino)ethyl]-6-(2-ethoxypyridin-3-yl)pyridine-2-carboxamide] | 100 |
| CCOc1ncccc1-c1ccc(N2C[C@H]3CN(c4ccc(Cl)cc4C(F)(F)F)C(=O)N3C[C@H]2CC)c(C(=O)NC[C@H]2CCN2)n1 [Example 44, 3-[(6R,8aS)-2-[4-chloro-2-(trifluoromethyl)phenyl]-6-ethyl-3-oxo-5,6,8,8a-tetrahydro-1H-imidazo[1,5-a]pyrazin-7-yl]-N-[[(2R)-azetidin-2-yl]methyl]-6-(2-ethoxypyridin-3-yl)pyridine-2-carboxamide] | 100 |
| CCOc1ncccc1-c1ccc(N2C[C@H]3CN(c4ccc(Cl)cc4C(F)(F)F)C(=O)N3C[C@H]2CC)c(C(=O)NC2CC(=O)N(C)C2)n1 (stereo partly drawn) [Example 42, 3-[(6R,8aS)-2-[4-chloro-2-(trifluoromethyl)phenyl]-6-ethyl-3-oxo-5,6,8,8a-tetrahydro-1H-imidazo[1,5-a]pyrazin-7-yl]-6-(2-ethoxypyridin-3-yl)-N-(1-methyl-5-oxopyrrolidin-3-yl)pyridine-2-carboxamide] | 100 |
| CCOc1ncccc1-c1ccc(N2C[C@H]3CN(c4ccc(C(F)(F)F)cc4C#N)C(=O)N3C[C@H]2CC)c(C(=O)N[C@@H]2CC(=O)N(C)C2)n1 [Example 57, 3-[(6R,8aS)-2-[2-cyano-4-(trifluoromethyl)phenyl]-6-ethyl-3-oxo-5,6,8,8a-tetrahydro-1H-imidazo[1,5-a]pyrazin-7-yl]-6-(2-ethoxypyridin-3-yl)-N-[(3R)-1-methyl-5-oxopyrrolidin-3-yl]pyridine-2-carboxamide] | 100 |
| CC[C@@H]1CN2C(=O)N(c3ccc(Cl)cc3C(F)(F)F)C[C@@H]2CN1c1ccc(-c2ccccc2OC)nc1C(=O)N[C@@H]1CC(=O)N(C)C1 [Example 68, 3-[(6R,8aS)-2-[4-chloro-2-(trifluoromethyl)phenyl]-6-ethyl-3-oxo-5,6,8,8a-tetrahydro-1H-imidazo[1,5-a]pyrazin-7-yl]-6-(2-methoxyphenyl)-N-[(3R)-1-methyl-5-oxopyrrolidin-3-yl]pyridine-2-carboxamide] | 96 |
| COc1ccccc1-c1ccc(N2C[C@H]3CN(c4ccc(Cl)cc4C(F)(F)F)C(=O)N3C[C@H]2C)c(C(=O)N[C@@H]2CC(=O)N(C)C2)n1 [Example 64, 3-[(6R,8aS)-2-[4-chloro-2-(trifluoromethyl)phenyl]-6-methyl-3-oxo-5,6,8,8a-tetrahydro-1H-imidazo[1,5-a]pyrazin-7-yl]-6-(2-methoxyphenyl)-N-[(3R)-1-methyl-5-oxopyrrolidin-3-yl]pyridine-2-carboxamide] | 95 |
| CCOc1ncccc1-c1ccc(N2C[C@H]3CN(c4ccc(F)cc4C(F)(F)F)C(=O)N3C[C@H]2CC)c(C(=O)N[C@@H]2CC(=O)N(C)C2)n1 [Example 52, 3-[(6R,8aS)-6-ethyl-2-[4-fluoro-2-(trifluoromethyl)phenyl]-3-oxo-5,6,8,8a-tetrahydro-1H-imidazo[1,5-a]pyrazin-7-yl]-6-(2-ethoxypyridin-3-yl)-N-[(3R)-1-methyl-5-oxopyrrolidin-3-yl]pyridine-2-carboxamide] | 100 |
| CC[C@@H]1CN2C(=O)N(c3ccc(Cl)cc3C(F)(F)F)C[C@@H]2CN1c1ccc(-c2cccnc2OC)nc1C(=O)N[C@@H]1CC(=O)N(C)C1 [Example 69, 3-[(6R,8aS)-2-[4-chloro-2-(trifluoromethyl)phenyl]-6-ethyl-3-oxo-5,6,8,8a-tetrahydro-1H-imidazo[1,5-a]pyrazin-7-yl]-6-(2-methoxy-3-pyridinyl)-N-[(3R)-1-methyl-5-oxopyrrolidin-3-yl]pyridine-2-carboxamide] | 92 |
| CCOc1ncccc1-c1ccc(N2C[C@H]3CN(c4ccc(Cl)cc4C(F)(F)F)C(=O)N3C[C@H]2CC)c(C(=O)N[C@H]2CCNC2=O)n1 [Example 48, 3-[(6R,8aS)-2-[4-chloro-2-(trifluoromethyl)phenyl]-6-ethyl-3-oxo-5,6,8,8a-tetrahydro-1H-imidazo[1,5-a]pyrazin-7-yl]-6-(2-ethoxypyridin-3-yl)-N-[(3S)-2-oxopyrrolidin-3-yl]pyridine-2-carboxamide] | 100 |
| CCOc1ncccc1-c1ccc(N2C[C@H]3CN(c4ccc(F)cc4C#N)C(=O)N3C[C@H]2CC)c(C(=O)N[C@@H]2CC(=O)N(C)C2)n1 [Example 58, 3-[(6R,8aS)-2-(2-cyano-4-fluorophenyl)-6-ethyl-3-oxo-5,6,8,8a-tetrahydro-1H-imidazo[1,5-a]pyrazin-7-yl]-6-(2-ethoxypyridin-3-yl)-N-[(3R)-1-methyl-5-oxopyrrolidin-3-yl]pyridine-2-carboxamide] | 100 |

Next, values leading:

| inhibition at 1 µM [%] | Structure (SMILES) |
| --- | --- |
| 100 | CCOc1ncccc1-c1ccc(N2C[C@H]3CN(c4ccc(Cl)cc4C(F)(F)F)C(=O)N3C[C@H]2CC)c(C(N)=O)n1 [Example 27, 3-[(6R,8aS)-2-[4-chloro-2-(trifluoromethyl)phenyl]-6-ethyl-3-oxo-5,6,8,8a-tetrahydro-1H-imidazo[1,5-a]pyrazin-7-yl]-6-(2-ethoxypyridin-3-yl)pyridine-2-carboxamide] |
| 99 | CCOc1ncccc1-c1ccc(N2CCN3C(=O)N(c4ccc(Cl)cc4C(F)(F)F)CC3(C)C2)c(C=O)n1 (stereo not shown) [Example 9, 3-[2-[4-chloro-2-(trifluoromethyl)phenyl]-8a-methyl-3-oxo-1,5,6,8-tetrahydroimidazo[1,5-a]pyrazin-7-yl]-6-(2-ethoxypyridin-3-yl)pyridine-2-carbaldehyde] |
| 91 | CCOc1ncccc1-c1ccc(N2C[C@H]3CN(c4ccc(Cl)cc4C(F)(F)F)C(=O)N3C[C@H]2CC)c(C(=O)O)n1 [Example 38a, 3-[(6R,8aS)-2-[4-chloro-2-(trifluoromethyl)phenyl]-6-ethyl-3-oxo-5,6,8,8a-tetrahydro-1H-imidazo[1,5-a]pyrazin-7-yl]-6-(2-ethoxy-3-pyridyl)pyridine-2-carboxylic acid] |
| 100 | CCOc1ncccc1-c1ccc(N2CCN3C(=O)N(c4ccc(Cl)cc4C(F)(F)F)C[C@@H]3C2)c(C(=O)NCC2(O)COC2)n1 [Example 15, 3-[(8aS)-2-[4-chloro-2-(trifluoromethyl)phenyl]-3-oxo-5,6,8,8a-tetrahydro-1H-imidazo[1,5-a]pyrazin-7-yl]-6-(2-ethoxypyridin-3-yl)-N-[(3-hydroxyoxetan-3-yl)methyl]pyridine-2-carboxamide] |
| 81 | CCOc1ncccc1-c1ccc(N2CCN3C(=O)N(C4(C(F)(F)F)CCCC4)CC3C2)c(C(N)=O)n1 (stereo not shown) [Example 3, 6-(2-ethoxypyridin-3-yl)-3-[3-oxo-2-[1-(trifluoromethyl)cyclopentyl]-5,6,8,8a-tetrahydro-1H-imidazo[1,5-a]pyrazin-7-yl]pyridine-2-carboxamide] |
| 89 | CCOc1ncccc1-c1ccc(N2C[C@H]3CN(C4(C(F)(F)F)CCC4)C(=O)N3C[C@H]2CC)c(C(=O)N[C@@H]2CC(=O)N(C)C2)n1 [Example 65, 3-[(6R,8aS)-6-ethyl-3-oxo-2-[1-(trifluoromethyl)cyclobutyl]-5,6,8,8a-tetrahydro-1H-imidazo[1,5-a]pyrazin-7-yl]-6-(2-ethoxy-3-pyridinyl)-N-[(3R)-1-methyl-5-oxopyrrolidin-3-yl]pyridine-2-carboxamide] |
| 91 | CCOc1ncccc1-c1ccc(N2CCN3C(=O)N(c4ccc(Cl)cc4C(F)(F)F)C[C@H]3C2)c(C=O)n1 [Example 7, 3-[(8aR)-2-[4-chloro-2-(trifluoromethyl)phenyl]-3-oxo-5,6,8,8a-tetrahydro-1H-imidazo[1,5-a]pyrazin-7-yl]-6-(2-ethoxypyridin-3-yl)pyridine-2-carbaldehyde] |
| 100 | CCOc1ncccc1-c1ccc(N2CCN3C(=O)N(c4ccc(Cl)cc4C(F)(F)F)C[C@@H]3C2)c(C(=O)NCCc2ccccn2)n1 [Example 19, 3-[(8aS)-2-[4-chloro-2-(trifluoromethyl)phenyl]-3-oxo-5,6,8,8a-tetrahydro-1H-imidazo[1,5-a]pyrazin-7-yl]-6-(2-ethoxypyridin-3-yl)-N-(2-pyridin-2-ylethyl)pyridine-2-carboxamide] |
